One assay deals with WecA. To be noted: cited from earlier work.
For assay [1], the target named is WecA enzyme (P-60 from E. coli B21WecA) (Escherichia coli, UniProt P0AC78). Put plainly: biochemical. In kind it is biochemical.
The target in the next assay is M. smegmatis WecA (P-60) (Mycolicibacterium smegmatis, UniProt A0R211). Put plainly: Kinetic parameter evaluation via WecA activity assay. The assay is classed as biochemical. The settings on record: for Vmax for C50-P-P-Glucosamine-C6-FITC synthesis: crude membrane P-60, Michaelis-Menten plot.
A further assay concerns the target T1, M. smegmatis WecA (Mycolicibacterium smegmatis, UniProt A0R211).
T1 sequence (A0R211 1-406): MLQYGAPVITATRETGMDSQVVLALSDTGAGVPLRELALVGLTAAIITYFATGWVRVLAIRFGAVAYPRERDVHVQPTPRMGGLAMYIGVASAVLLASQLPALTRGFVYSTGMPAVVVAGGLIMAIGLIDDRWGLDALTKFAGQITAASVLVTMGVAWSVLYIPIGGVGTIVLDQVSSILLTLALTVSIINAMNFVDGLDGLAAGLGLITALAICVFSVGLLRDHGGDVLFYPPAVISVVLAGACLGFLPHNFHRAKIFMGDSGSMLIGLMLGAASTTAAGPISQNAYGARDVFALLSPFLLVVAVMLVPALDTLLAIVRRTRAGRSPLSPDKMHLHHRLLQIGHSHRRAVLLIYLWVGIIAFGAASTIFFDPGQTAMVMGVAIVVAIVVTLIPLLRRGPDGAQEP
The assay is classed as biochemical.

A further assay concerns M. tuberculosis. Put plainly: MIC determination against replicating Mtb. To be noted: aerobic. In kind it is cell-based, Mycobacterium tuberculosis (H37Rv).
The test system of assay [2] is non-replicating Mtb H37Rv (pFCA-luxAB). In kind it is cell-based, M. tuberculosis H37Rv. The settings on record: for MICLORA/MICMABA: ratio of LORA MIC to MABA MIC.
In the next assay the test system is non-replicating Mtb. Kind of assay: Wayne model under low-oxygen conditions. The assay is classed as cell-based.
Assay [3] concerns intracellular Mtb CDC1551-tdTomato in J774A.1 cells. Kind of assay: Killing effect against intracellular M. tuberculosis in J774A.1 macrophages. The assay is classed as cell-based.
The next assay concerns the target T2, MurX (Mycolicibacterium smegmatis, UniProt A0R019).
T2 sequence (A0R019 1-359): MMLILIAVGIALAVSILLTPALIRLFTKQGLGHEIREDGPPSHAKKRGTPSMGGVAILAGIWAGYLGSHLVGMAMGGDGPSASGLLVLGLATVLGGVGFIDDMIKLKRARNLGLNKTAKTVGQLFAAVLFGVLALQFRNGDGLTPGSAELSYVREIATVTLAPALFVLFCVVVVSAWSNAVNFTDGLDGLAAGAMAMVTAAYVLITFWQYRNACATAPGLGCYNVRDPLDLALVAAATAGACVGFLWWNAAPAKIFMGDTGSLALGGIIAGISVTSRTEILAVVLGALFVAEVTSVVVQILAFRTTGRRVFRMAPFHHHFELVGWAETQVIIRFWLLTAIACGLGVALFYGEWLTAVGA
The settings on record: cited from earlier work.

Data on nine compounds can be found in PMC5012913 (Analytical biochemistry, 2016).

Values after ≈ are worked out from the molar mass of the structure shown. “Also recorded” adds a separate entry of the source. Where two headings read alike, the source gives them in different places.

For `CCCCc1ccc(NC(=O)C2=CCN(C)[C@@H]([C@H](O[C@@H]3O[C@H](CN)[C@@H](O)[C@H]3O)[C@H]3O[C@@H](n4ccc(=O)[nH]c4=O)[C@H](O)[C@@H]3O)C(=O)N2C)cc1` [CPZEN-45], the “WecA inhibition” value in the assay on WecA is reported as “inhibit WecA at low concentrations”.

In the case of `CO[C@H]1[C@@H](O)[C@H](n2ccc(=O)[nH]c2=O)O[C@@H]1[C@@H](O[C@H]1OC(C(=O)N[C@H]2CCCCNC2=O)=C[C@H](O)[C@@H]1O)C(N)=O` [Capuramycin (6), Capuramycin], in [1] (at 20 µg/mL), the “WecA enzyme inhibitory activity” value is recorded as “no WecA enzyme inhibitory activity”. Moreover, in assay [1] (read-out: WecA inhibition (%)), the inhibition at 0.02 µg/mL is 0%, the inhibition at 2 µg/mL was 0% and the inhibition at 20 µg/mL is 0%.

For `CCCCCCCCCC(=O)O[C@@H]1[C@H](OC)[C@@H]([C@@H](O[C@H]2OC(C(=O)N[C@H]3CCC[C@@H](C)NC3=O)=C[C@H](O)[C@@H]2O)C(N)=O)O[C@H]1n1ccc(=O)[nH]c1=O` [SQ641 (8)], in [1], the “WecA enzyme inhibitory activity” value is “no WecA enzyme inhibitory activity”.

Turning to `CC(=O)N[C@H]1[C@@H](OP(=O)(O)OP(=O)(O)OC[C@H]2O[C@@H](n3ccc(=O)[nH]c3=O)[C@H](O)[C@@H]2O)O[C@H](CO)[C@@H](O)[C@@H]1O` [UDP-GlcNAc], at M. smegmatis WecA (P-60) (140 µM exogenous decaprenyl phosphate (C50-P)), the Michaelis-Menten constant (Km) amounted to 110 µM.

As for `COC1C(C(OC2OC(C(=O)NC3CCCCNC3=O)=CC(O)C2O)C(N)=O)OC(n2ccc(=O)[nH]c2=O)C1OC` (centres unmarked) [UT-01320 (12)], in assay [1], the “WecA enzyme inhibitory activity” value is listed as “inhibited completely” and the “WecA inhibition (%) obtained via HPLC” value is listed as 100 (100) %. The “IC50 against M. smegmatis wecA” value at M. smegmatis WecA came out at 0.0507 µg/mL (≈ 0.0869 µM). Also, the “MIC (MABA), replicating Mtb” value in the assay on M. tuberculosis was determined as 1.5 µg/mL (≈ 2.57 µM). In addition, the “MIC (LORA), non-replicating Mtb” value in assay [2] (low-oxygen conditions) was 2.58 µg/mL (≈ 4.42 µM). Moreover, the MICLORA/MICMABA in assay [2] was determined as 1.72. Moreover, the “Effectiveness in non-replicating Mtb (Wayne model)” value with non-replicating Mtb is “confirmed”. For the same compound, the “Bactericidal effect against intracellular Mtb (words, comparison with TB drugs)” value in assay [3] (2x and 4x MIC, up to 72h, J774A.1, listed as 12) was “equal to those of capreomycin; also recorded: faster killing effect than rifampicin”. Also, the “Time to kill Mtb in infected macrophages” value in assay [3] (x2 MICLORA, […]) is recorded as ≤ 72 h. In addition, the “MurX enzyme inhibitory activity” value at MurX (even at 400 µg/mL, as previously reported) is listed as “did not exhibit MurX enzyme inhibitory activity”.

Consider `CO[C@H]1/C=C/O[C@@]2(C)Oc3c(C)c(O)c4c(O)c(c(/C=N/N5CCN(C)CC5)c(O)c4c3C2=O)NC(=O)/C(C)=C\C=C\[C@H](C)[C@H](O)[C@@H](C)[C@@H](O)[C@@H](C)[C@H](OC(C)=O)[C@@H]1C` [rifampicin, reference compound], for which the MICLORA/MICMABA in assay [2] is 7.35.

In the case of “Decaprenyl-P-P-Glucosamine-C6-FITC [C50-P-P-Glucosamine-C6-FITC (3)]”, the “Vmax for C50-P-P-Glucosamine-C6-FITC synthesis” value at M. smegmatis WecA (P-60) is on record as 0.404 µM/min; at M. smegmatis WecA (P-60) (listed as C50-P-P-Glucosamine-C6-FITC), 0.4041 µM/min.

For the compound “Tunicamycin [Tunicamycin (5), reference compound]”, the “IC50 against M. smegmatis wecA” value against M. smegmatis WecA (UV-Vis dose-response curve) was determined as 0.59 µg/mL. On MurX, the “IC50 against MurX” value is listed as 2.31 µg/mL.

Take “UDP-Glucosamine-C6-FITC [UDP-Glucosamine-C6-FITC (1)]”: at M. smegmatis WecA (P-60) (with undecaprenyl phosphate), the Km amounted to 196 µM.
